The test system of experiment [1] is Pyrenophora teres. The experiment can be described thus: In vivo preventive test on Pyrenophora teres (net blotch on barley).
The test system of experiment [2] is Venturia inaequalis. The experiment can be described thus: Venturia test (apples)/preventive. It is filed as in vivo. The following applies: 100 ppm of active ingredient, evaluated 10 days after inoculation. On the procedure: Venturia Test (Apples)/Preventive
(§1) To produce a suitable preparation of active compound, 1 part by weight of active compound is mixed with the stated amounts of solvent and emulsifier, and the concentrate is diluted with water to the desired concentration.
To test for preventive activity, young plants are sprayed with the preparation of active compound at the stated rate of application. After the spray coating has dried on, the plants are inoculated with an aqueous conidia suspension of the causal agent of apple scab (Venturia inaequalis) and then remain for 1 day in an incubation cabinet at approximately 20° C. and a relative atmospheric humidity of 100%.
The plants are then placed in a greenhouse at approximately 21° C. and a relative atmospheric humidity of approximately 90%.
The test is evaluated 10 days after the inoculation. 0% means an efficacy which corresponds to that of the untreated control, while an efficacy of 100% means that no disease is observed.

Experiment [3] deals with Puccinia recondita. The experiment can be described thus: In vivo preventive test on Puccinia recondita (brown rust on wheat). Summed up: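 Wheat seedlings ("Scipion") sprayed with compound at the 1-leaf stage, inoculated 24 h later with Puccinia recondita spores (100 000 spores per ml). Incubated 24 h at 20° C and 100% RH, then 10 days at 20° C and 70-80% RH. Efficacy (%) versus solvent-treated controls graded 12 days after contamination.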

The test system of experiment [4] is Sphaerotheca fuliginea. The experiment can be described thus: In vivo preventive test on Sphaerotheca fuliginea (powdery mildew on cucurbits). Summed up: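 Gherkin plants at Z11 cotyledon stage were sprayed with compound in acetone/tween/DMSO/water. After 24 h they were inoculated with S. fuliginea spores (100 000 spores per ml) and incubated at about 20° C and 70-80% RH. Percent efficacy versus solvent-treated controls was scored 12 days post-inoculation.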

Experiment [5] deals with Phakopsora pachyrhizi. The experiment can be described thus: Phakopsora test (soybeans)/preventive. Conditions: 100 ppm of active ingredient, evaluated 7 days after inoculation. It is filed as in vivo. On the procedure:
Phakopsora Test (Soybeans)/Preventive
as §1
To test for preventive activity, young plants are sprayed with the preparation of active compound at the stated rate of application. After the spray coating has dried on, the plants are inoculated with an aqueous spore suspension of the causal agent of soybean rust (Phakopsora pachyrhizi) and stay for 24 h without light in an incubation cabinet at approximately 24° C. and a relative atmospheric humidity of 95%.
The plants remain in the incubation cabinet at approximately 24° C. and a relative atmospheric humidity of approximately 80% and a day/night interval of 12 h.
The test is evaluated 7 days after the inoculation. 0% means an efficacy which corresponds to that of the untreated control, while an efficacy of 100% means that no disease is observed.

Experiment [6] concerns Septoria tritici. The experiment can be described thus: In vivo preventive test on Septoria tritici (leaf spot on wheat). The following applies: 500 ppm, preventive spray, wheat plants, grading 24 days after contamination. Summed up: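 Wheat cv. Scipion sprayed preventively at 1-leaf stage; inoculated 24 h later with Septoria tritici spores (500 000 spores per ml). Incubation 72 h at 18 °C, 100% RH, then 21 days at 90% RH; % efficacy graded 24 days after contamination against solvent-treated controls.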

In experiment [7] the test system is Alternaria brassicae. The experiment can be described thus: In vivo preventive test on Alternaria brassicae (leaf spot on radish). The following applies: dose 500 ppm, spray, graded 6 days after contamination vs control plants. In outline:
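Radish cv. Pernod Clair at cotyledon stage (grown 17 °C) sprayed with compound in acetone/tween/DMSO/water, then inoculated 24 h later with A. brassicae spores (50 000 spores per ml). Incubation 20 °C, 100% RH; % efficacy graded 6 days post-inoculation versus solvent-treated controls.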

The mark [8] stands for this setting: dose 100 ppm of active ingredient, comparison with known compounds.
Where [9] appears, read: dose 100 ppm, comparison with known compounds, same conditions.

In the case of `CC1CC(C)(C)c2cccc(NC(=O)c3cccnc3C(F)F)c21` (stereo not shown) [Example 1], the “protection (in words)” value in experiment [1] (setting [8]), in experiment [3] (setting [8]) and in experiment [4] (setting [8]) was “total protection” in each case. For the same molecule, the Efficacy worked out at 100% in experiment [1] (setting [9]); 100% in experiment [3] (setting [9]); 100% in experiment [4] (dose 100 ppm, comparison with prior-art compounds, gherkin plants, grading 12 days after contamination). Also, the Eff. % in experiment [1] (dose 500 ppm, barley, spray, graded 14 days after contamination vs control plants) was found to be 100%; in experiment [2], 100%; in experiment [3] (dose 500 ppm, wheat, spray, graded 12 days after contamination vs control plants), 100%; in experiment [4] (500 ppm, preventive spray, gherkin plants, grading 12 days after contamination), 100%; in experiment [5] it was 99%; in experiment [6], 100%. For the same molecule, the Eff. % in experiment [7] worked out at 92%.

The record behind these values is patent publication US9376391B2, “Difluoromethyl-nicotinic-tetrahydronaphthyl carboxamides as fungicides” (BAYER CROPSCIENCE AKTIENGESELLSCHAFT, priority 2012, dated 2016).
